From US20210317092A1 (BAYER PHARMA AKTIENGESELLSCHAFT, priority 2016, published 2021)
Where two headings read alike, the source gives them in different places.

How the values were obtained:
[1] = biological target: T1, human Bradykinin B1 receptor (Homo sapiens, UniProt P46663); experiment: Calcium flux Assay (FLIPR) with recombinant CHO-K1 cells expressing human Bradykinin B1 receptor, in presence (hB1 IC50) or absence (hB1 free IC50) of 0.1% BSA; assay type: cell-based
T1 construct: host or cells: CHO-K1
T1 sequence (P46663 1-353): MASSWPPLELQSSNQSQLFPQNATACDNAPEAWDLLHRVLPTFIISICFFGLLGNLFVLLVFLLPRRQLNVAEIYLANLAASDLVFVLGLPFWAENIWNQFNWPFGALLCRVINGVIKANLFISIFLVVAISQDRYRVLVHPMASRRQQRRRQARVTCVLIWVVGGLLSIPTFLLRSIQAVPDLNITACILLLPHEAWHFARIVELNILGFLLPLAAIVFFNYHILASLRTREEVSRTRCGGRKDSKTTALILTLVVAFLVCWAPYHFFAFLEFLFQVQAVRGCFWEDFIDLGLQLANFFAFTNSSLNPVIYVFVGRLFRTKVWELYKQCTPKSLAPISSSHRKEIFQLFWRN

[2] = biological target: T2, native human Bradykinin B1 receptor (Homo sapiens, UniProt P46663); experiment: Calcium flux Assay (FLIPR) with human fibroblasts expressing Bradykinin B1 receptor (hB1 IMR-90); assay type: cell-based; conditions: IMR-90 human fibroblasts expressing native Bradykinin B1 receptor
T2 construct: which express native human Bradykinin B1 receptor after induction with human IL-10; Coriell Institute; host or cells: IMR-90 human foetal lung fibroblasts, cytokine-induced
T2 sequence (P46663 1-353): T1 sequence (P46663 1-353)
Experimental: Calcium flux Assay (FLIPR) with human fibroblasts expressing Bradykinin B1 receptor (hB1 IMR-90)
The Calcium flux Assay was carried out utilising IMR-90 human foetal lung fibroblasts (American Type Culture Collection, Rockville, Md.; and Coriell Institute, Camden, N.J.), which express native human Bradykinin B1 receptor after induction with human […].
The fibroblasts were cultured in complete growth media comprised of Dulbecco's modified Eagle's medium (DMEM; Sigma) containing 10% foetal bovine serum, 4 mM L-glutamine, and 1% nonessential amino acids. The cells were maintained in a humidified atmosphere with 5% CO2 at 37° C. and were sub-cultured at a ratio of 1:3, every other day.
For the assay, IMR-90 fibroblasts were harvested using TrypLE Express (GIBCO/Invitrogen) and seeded into 384-well plates (Corning Cellbinding Surface, Cat. 3683) at a density of 15000 cells/well. The following day, cells were treated with 0.35 ng/mL human […] in 10% FBS/MEM for 3h to up-regulate Bradykinin B1 receptor. Induced cells were loaded with fluorescent calcium indicator by incubation with 2.5 μM Fluo-4/AM (Invitrogen) at 37° C., 5% CO2 for 2 h in the presence of 2.5 mM probenecid in 1% FBS/MEM. Extracellular dye was removed by washing with assay buffer (2.5 mM probenecid and 0.1% BSA in 20 mM HEPES/HBSS without bicarbonate or phenol red, pH 7.5). Compound examples were assayed at 8 concentrations in triplicate. After addition of compound examples to the cell plate and incubation for 30 min at 28° C., the addition of Bradykinin B1 agonist Lys-(Des-Arg)-Bradykinin (Bachem, Brackley) at a final concentration of EC90 was carried out on the FLIPR instrument while continuously monitoring Ca^2+-dependent fluorescence at 538 nm. A peptide antagonist Lys-(Des-Arg-Leu)-Bradykinin (Bachem, Brackley) at 20 µM was used to determine the full inhibition as control. IC50 values were determined by the same way described for the FLIPR assay with recombinant cells.

[3] = in absence of 0.1% BSA, read-out: hB1 free IC50
[4] = in presence of 0.1% BSA, read-out: hB1 IC50

IC50 [1, 3] [nM] | IC50 [1, 4] [nM] | IC50 [2] [nM] | Structure (SMILES)
4.54 | 10.9 | 10.7 | CCOc1ccc(-c2ccc(NC(=O)C3(c4ccc(C(F)(F)F)cc4)CC3)cc2-c2nnn[nH]2)cn1 [Example 105, N-[4-(6-ethoxypyridin-3-yl)-3-(1H-tetrazol-5-yl)phenyl]-1-[4-(trifluoromethyl)phenyl] cyclopropane-carboxamide]
5.68 | 12.7 | 11 | CCCOc1ccc(-c2ccc(NC(=O)C3(c4cccc(Cl)c4)CC3)cc2-c2nnn[nH]2)cn1 [Example 110, 1-(3-chlorophenyl)-N-[4-(6-propoxypyridin-3-yl)-3-(1H-tetrazol-5-yl)phenyl] cyclopropane-carboxamide]
4.98 | 16.6 | 10.6 | CCCOc1ccc(-c2ccc(NC(=O)C3(c4ccc(C(F)(F)F)cc4)CC3)cc2-c2nnn[nH]2)cn1 [Example 111, N-[4-(6-propoxypyridin-3-yl)-3-(1H-tetrazol-5-yl)phenyl]-1-[4-(trifluoromethyl)phenyl] cyclopropane-carboxamide]
16.2 | 44.9 | 20.4 | CCCOc1ccc(-c2ccc(NC(=O)C3(c4ccc(F)cc4F)CC3)cc2-c2nnn[nH]2)cn1 [Example 112, 1-(2,4-difluorophenyl)-N-[4-(6-propoxypyridin-3-yl)-3-(1H-tetrazol-5-yl)phenyl] cyclopropane-carboxamide]
2.88 | 22.7 | 13.1 | CCOc1ccc(-c2ccc(NC(=O)C3(c4cccc(Cl)c4)CC3)cc2-c2nnn[nH]2)cc1OC [Example 119, 1-(3-chlorophenyl)-N-[4′-ethoxy-3′-methoxy-2-(1H-tetrazol-5-yl)biphenyl-4-yl]cyclopropane carboxamide]
– | 30.6 | 25.1 | CCOc1ccc(-c2ccc(NC(=O)C3(c4cccc(C(F)(F)F)c4)CC3)cc2-c2nnn[nH]2)cc1OC [Example 120, N-[4′-ethoxy-3′-methoxy-2-(1H-tetrazol-5-yl)biphenyl-4-yl]-1-[3-(trifluoromethyl)phenyl] cyclopropane-carboxamide]
– | 28.2 | 19.4 | CCOc1ccc(-c2ccc(NC(=O)C3(c4ccc(C(F)(F)F)cc4)CC3)cc2-c2nnn[nH]2)cc1OC [Example 121]
– | 56.5 | 28.7 | CCOc1ccc(-c2ccc(NC(=O)C3(c4ccc(F)cc4F)CC3)cc2-c2nnn[nH]2)cc1OC [Example 122, 1-(2,4-difluorophenyl)-N-[4′-ethoxy-3′-methoxy-2-(1H-tetrazol-5-yl)biphenyl-4-yl]cyclopropane carboxamide]
23.3 | 13.8 | 26 | COCc1ccc(-c2ccc(NC(=O)C3(c4cccc(Cl)c4)CC3)cc2-c2nnn[nH]2)cn1 [Example 125, 1-(3-chlorophenyl)-N-{4-[6-(methoxymethyl)pyridin-3-yl]-3-(1H-tetrazol-5-yl)phenyl} cyclopropane-carboxamide]
– | 21.9 | 13.1 | COCc1ccc(-c2ccc(NC(=O)C3(c4ccc(C(F)(F)F)cc4)CC3)cc2-c2nnn[nH]2)cn1 [Example 126, N-{4-[6-(methoxymethyl)pyridin-3-yl]-3-(1H-tetrazol-5-yl)phenyl}-1-[4-(trifluoromethyl)phenyl] cyclopropane-carboxamide]
88.6 | 90.9 | 27.9 | COCc1ccc(-c2ccc(NC(=O)C3(c4ccc(F)cc4F)CC3)cc2-c2nnn[nH]2)cn1 [Example 127, 1-(2,4-difluorophenyl)-N-{4-[6-(methoxymethyl)pyridin-3-yl]-3-(1H-tetrazol-5-yl)phenyl} cyclopropane-carboxamide]
2.68 | 137 | 63.3 | O=C(Nc1ccc(-c2ccc(C(F)(F)F)cc2)c(-c2nnn[nH]2)c1)C1(c2cccc(Cl)c2)CC1 [Example 128, 1-(3-chlorophenyl)-N-[2-(1H-tetrazol-5-yl)-4′-(trifluoromethyl)biphenyl-4-yl]cyclopropane carboxamide]
58.7 | 516 | 91.8 | O=C(Nc1ccc(-c2ccc(C(F)(F)F)nc2)c(-c2nnn[nH]2)c1)C1(c2cccc(Cl)c2)CC1 [Example 135, 1-(3-chlorophenyl)-N-{3-(1H-tetrazol-5-yl)-4-[6-(trifluoromethyl)pyridin-3-yl]phenyl} cyclopropane-carboxamide]
165 | – | 15.7 | O=C(Nc1ccc(-c2ccc(C(F)(F)F)nc2)c(-c2nnn[nH]2)c1)C1(c2ccc(OC(F)(F)F)cc2)CC1 [Example 136, N-{3-(1H-tetrazol-5-yl)-4-[6-(trifluoromethyl)pyridin-3-yl]phenyl}-1-[4-(trifluoromethoxy)phenyl] cyclopropane-carboxamide]
17.1 | – | 43.9 | O=C(Nc1ccc(-c2ccc(C(F)(F)F)nc2)c(-c2nnn[nH]2)c1)C1(c2ccc(Cl)c(F)c2)CC1 [Example 137, 1-(4-Chloro-3-fluorophenyl)-N-{3-(1H-tetrazol-5-yl)-4-[6-(trifluoromethyl)pyridin-3-yl]phenyl} cyclopropane-carboxamide]
51.3 | – | 102 | O=C(Nc1ccc(-c2ccc(C(F)(F)F)nc2)c(-c2nnn[nH]2)c1)C1(c2cccc(Cl)c2F)CC1 [Example 138, 1-(3-chloro-2-fluorophenyl)-N-{3-(1H-tetrazol-5-yl)-4-[6-(trifluoromethyl)pyridin-3-yl]phenyl} cyclopropane-carboxamide]
22.6 | – | 91 | O=C(Nc1ccc(-c2ccc(C(F)(F)F)nc2)c(-c2nnn[nH]2)c1)C1(c2ccc(F)c(Cl)c2)CC1 [Example 139, 1-(3-chloro-4-fluorophenyl)-N-{3-(1H-tetrazol-5-yl)-4-[6-(trifluoromethyl)pyridin-3-yl]phenyl} cyclopropane-carboxamide]
42.1 | – | 85.1 | O=C(Nc1ccc(-c2ccc(C(F)(F)F)nc2)c(-c2nnn[nH]2)c1)C1(c2ccc(C(F)(F)F)cc2)CC1 [Example 140, N-{3-(1H-tetrazol-5-yl)-4-[6-(trifluoromethyl)pyridin-3-yl]phenyl}-1-[4-(trifluoromethyl)phenyl] cyclopropane-carboxamide]
224 | – | 141 | O=C(Nc1ccc(-c2ccc(C(F)(F)F)nc2)c(-c2nnn[nH]2)c1)C1(c2cc(F)ccc2F)CC1 [Example 141, 1-(2,5-difluorophenyl)-N-{3-(1H-tetrazol-5-yl)-4-[6-(trifluoromethyl)pyridin-3-yl]phenyl} cyclopropane-carboxamide]
300 | – | 289 | O=C(Nc1ccc(-c2ccc(C(F)(F)F)nc2)c(-c2nnn[nH]2)c1)C1(c2cccc(C(F)(F)F)c2)CC1 [Example 144, N-{3-(1H-tetrazol-5-yl)-4-[6-(trifluoromethyl)pyridin-3-yl]phenyl}-1-[3-(trifluoromethyl)phenyl] cyclopropane-carboxamide]
35.3 | – | 36.3 | COc1cc(-c2ccc(NC(=O)C3(c4ccc(C(F)(F)F)cc4F)CC3)cc2-c2nnn[nH]2)cnc1C(F)(F)F [Example 147, 1-[2-fluoro-4-(trifluoromethyl)phenyl]-N-{4-[5-methoxy-6-(trifluoromethyl)pyridin-3-yl]-3-(1H-tetrazol-5-yl)phenyl} cyclopropane-carboxamide]
1.94 | 20 | 18.5 | CC(C)Oc1ccc(-c2ccc(NC(=O)C3(c4cccc(Cl)c4)CC3)cc2-c2nnn[nH]2)cn1 [Example 148, 1-(3-chlorophenyl)-N-[4-(6-isopropoxy-pyridin-3-yl)-3-(1H-tetrazol-5-yl)phenyl] cyclopropane-carboxamide]
6.35 | 14.4 | 11.8 | CC(C)Oc1ccc(-c2ccc(NC(=O)C3(c4ccc(C(F)(F)F)cc4)CC3)cc2-c2nnn[nH]2)cn1 [Example 149, N-[4-(6-isopropoxy-pyridin-3-yl)-3-(1H-tetrazol-5-yl)phenyl]-1-[4-(trifluoromethyl)phenyl] cyclopropane-carboxamide]
